Data on 23 compounds can be found in PMC11823381, “Identification of novel inhibitors of dengue viral NS5 RNA-dependent RNA polymerase through molecular docking, biological activity evaluation and molecular dynamics simulations” (Journal of Enzyme Inhibition and Medicinal Chemistry, 2025).

Each structure is given as a SMILES string. Where “and” joins values, the source holds several entries; their conditions need not be identical. Equal entries are not always repeated. Where two headings read alike, the source gives them in different places.

Data set [1] concerns DENV2 NGC strain. Briefly: Cell-based antiviral assay (Viral ToxGlo, CPE) against DENV-NGC. The conditions noted are these: for IC50: mean ± SD of two individual experiments; for SI (selectivity index): ratio of CC50 to IC50. Also noted: species or system dengue virus (DENV2). As to the method: (§1) In this study, the DENV2 NGC strain (provided by Robert B. Tesh, University of Texas Medical Branch) and BHK-21 cells (Baby hamster kidney cells, ATCC CCL10) were used for cell-based antiviral evaluations. Viral stocks were prepared by infecting C6/36 cells (Aedes albopictus clone C6/36; ATCC CRL166), cultured in RPMI 1640 medium (Invitrogen, Burlington, ON, Canada) containing 2% foetal bovine serum (FBS) (Sigma-Aldrich, Shanghai, China) and 0.5% penicillin-streptomycin. The infected cultures were incubated at 28 °C with 5% CO2 for seven days until cytopathic effects (CPE) were detected. Supernatants were collected by centrifuging at 2,000 g for 5 min to remove debris, mixed with 20% FBS, and stored in aliquots at −80 °C. Viral titres were quantified using the Promega Viral ToxGlo assay (Fisher Scientific, Ottawa, ON, Canada) on BHK-21 cells, and the 50% tissue culture infective dose (TCID50) was determined following the manufacturer’s instructions. To test antiviral activity, BHK-21 cells were seeded in 96-well plates at 2,500 cells per well using Dulbecco’s modified Eagle’s medium (DMEM) with 10% FBS and 1% penicillin-streptomycin. After overnight incubation at 37 °C, cells were exposed to 100 TCID50 of DENV for 90 min. Following infection, the medium was replaced with DMEM supplemented with 2.5% FBS and different concentrations of the test compounds. Cultures were maintained at 37 °C with 5% CO2 for 3 days. Fresh Viral Tox reagent was prepared, and 100 μL was added to each well before incubating the plates for at least 10 min. Luminescence readings were taken using a 1450 MicroBeta TriLux scintillation counter (PerkinElmer). Data were analysed by plotting luminescence values against logarithmic compound concentrations, and nonlinear regression was carried out using GraphPad Prism 10.0 software.

Data set [2] in a line: Cytotoxicity (CC50) in the cell-based assay. Particulars: hamster, BHK-21 cells. As to the method: as §1
The mark [3] stands for this setting: Dengue virus, DENV2, BHK-21, 72 h, BHK-21 cells, 100 TCID50 of DENV, 3 days, read-out: DENV-NGC-IC50.
Where [4] appears, read: BHK-21 cells, 100 TCID50 of DENV, 3 days, read-out: DENV-NGC-IC50.
Setting [5] is: Dengue virus, DENV2, BHK-21, 72 h, read-out: DENV-NGC-IC50, BHK-21 cells, 100 TCID50 of DENV, 3 days.

In the case of `Nc1ncnc2c([C@@H]3N[C@H](CO)[C@@H](O)[C@H]3O)c[nH]c12` [BCX4430, Galidesivir, reference compound], the half-maximal inhibitory concentration (IC50) in data set [1] (setting [3]) turned out to be 41.6 ± 2.95 µM. Besides, the “SI (selectivity index)” value in data set [1] was found to be 2.40. In data set [2], this compound came in with a CC50 at 3 days of 100 ± 12.5 µM.
For `COc1cccc(S(=O)(=O)NC(=O)c2cc(-c3ccc(C#CCO)s3)c(OC)cc2OC)c1` [Compound 27, reference compound], in that order: 19.7 ± 1.12 µM, 1.37 and 26.9 ± 3.02 µM.
As for `CN(Cc1ccccc1)C(=O)c1snc2c(=O)n(Cc3ccccc3)c(=O)[nH]c12` [Compound D1], in data set [1] (setting [3]), the half-inhibitory concentration (IC50) was determined as 13.1 ± 1.17 µM. Moreover, the “SI (selectivity index)” value in data set [1] worked out at 2.87. Moreover, it took 37.5 ± 2.03 µM to reach half-maximal cytotoxicity in data set [2] (CC50 at 3 days).
For `CCCC[C@@](CCC(=O)O)(C(=O)OCC)c1csc(Nc2ccc(C)cc2)n1` [Compound D3], the concentration for half-maximal inhibition (IC50) in data set [1] (setting [3]) is greater than 66.7 µM.
On to `O=C(CCSc1nc(-c2ccc3c(c2)OCO3)cc(C(F)(F)F)n1)NCCN1CCOCC1` [Compound D4], for which the IC50 in data set [1] (setting [3]) is greater than 200 µM.
In the case of `O=C(Cn1c(=O)sc2ccccc21)Nc1nnc(SCc2ccccc2)s1` [Compound D5], in data set [1] (setting [4]), the IC50 is 28.5 µM and > 66.7 µM. The CC50 at 3 days in data set [2] is greater than 200 µM.
Turning to `NC(=O)C1CCN(C(=O)CCCSc2nc(-c3ccco3)cc(C(F)(F)F)n2)CC1` [Compound D6], the IC50 in data set [1] (setting [3]) was greater than 200 µM.
With `O=C(Cn1c(=O)sc2ccccc21)Nc1nnc(SCC(=O)N2CCOCC2)s1` [Compound D7], in data set [1] (setting [3]), the concentration for half-maximal inhibition (IC50) was greater than 200 µM.
In the case of `O=C(Nc1ccc(F)cc1F)N1CCC[C@@H]1c1nc2cc(-c3ccccc3F)ccc2o1` [Compound D8], the half-inhibitory concentration (IC50) in data set [1] (setting [3]) turned out to be 14.8 ± 7.76 µM. For the same compound, the “SI (selectivity index)” value in data set [1] came out at 6.71. It took 99.2 ± 1.93 µM to reach half-maximal cytotoxicity in data set [2] (CC50 at 3 days).
As for `CC(=O)Nc1ccc(S(=O)(=O)N[C@]2(C(F)(F)F)NC(=O)N(c3ccc(Cl)cc3)C2=O)cc1` [Compound D9], the half-maximal inhibitory concentration (IC50) in data set [1] (setting [3]) was greater than 200 µM.
As to `Cc1ccc(NC(=O)[C@@H]2[C@H]3C(=O)N(C[C@@H]4CCCO4)[C@H](C(=O)NC4CCCCC4)[C@]34C=C[C@H]2O4)cc1` [Compound D10], the IC50 in data set [1] (setting [3]) was greater than 200 µM.
Take `Cc1[nH]c2ccccc2c1C(=O)C(=O)NC[C@@H]1COc2ccccc2O1` [Compound D11]: in data set [1] (setting [5]), the IC50 was greater than 66.7 µM. For the same compound, the cytotoxic concentration (CC50) at 3 days in data set [2] was 87.3 ± 2.75 µM.
Regarding `O=C1C[C@@H](NCCc2c[nH]c3ccccc23)C(=O)N1c1ccc(Oc2ccccc2)cc1` [Compound D12], the IC50 in data set [1] (setting [3]) came to 47.3 ± 11.8 µM. The “SI (selectivity index)” value in data set [1] is on record as 3.45. The compound further had a 50% cytotoxic concentration (CC50) at 3 days in data set [2] of 163 ± 14.1 µM.
Consider `NC(=O)COc1ccc([C@@H]2CC(=O)Nc3nc(SCc4ccc(Cl)cc4)[nH]c(=O)c32)cc1` [Compound D14], for which the IC50 in data set [1] (setting [4]) was 31.2 µM and > 200 µM. Moreover, the CC50 at 3 days in data set [2] is greater than 200 µM.
Regarding `CCOc1c(Nc2ccc(C#N)cc2)c(=O)c1=O` [Compound D15], the IC50 in data set [1] (setting [3]) was greater than 200 µM.
In the case of `O=C(COc1ccccc1)Nc1nnc(SCc2cc(=O)n3cc(Cl)ccc3n2)s1` [Compound D16], the IC50 in data set [1] (setting [3]) is greater than 200 µM.
In the case of `C[C@@H](Sc1nnc2c3ccccc3nc(-c3ccccc3)n12)C(=O)NC[C@H]1CCCO1` [Compound D17], the half-inhibitory concentration (IC50) in data set [1] (setting [3]) is 22.2 ± 7.25 µM. Moreover, the “SI (selectivity index)” value in data set [1] is reported as 2.38. Besides, in data set [2], the CC50 at 3 days was 53 ± 10.5 µM.
`O=C(O)CCCNC(=O)Cn1nc2c(cc1=O)CCCCC2` [Compound D18]: the IC50 in data set [1] (setting [3]) was greater than 200 µM.
Consider `O=c1c2ccccc2[nH]c(=S)n1C[C@H]1CC[C@H](C(=O)NC[C@@H]2COc3ccccc3O2)CC1` [Compound D19], for which, in data set [1] (setting [3]), the IC50 was greater than 200 µM.
With `CN(c1ccccc1)c1nc(=O)n(CC(=O)Nc2ccc(Br)cc2)c2ccccc12` [Compound D21], in data set [1] (setting [3]), the IC50 is greater than 200 µM.
As for `N#Cc1ccc(C(=O)N2CCC[C@H]2c2nc(CCOCC3CC3)no2)cc1` [Compound D23], the IC50 was greater than 200 µM in data set [1] (setting [4]) and 123 µM in data set [1] (setting [3]). The same compound registered a CC50 at 3 days in data set [2] greater than 200 µM.
With `O=C([C@@H]1C[C@H](Oc2ccccc2)CN1C(=O)CCc1nc2ccccc2s1)N1CCCC1` [Compound D24], the IC50 in data set [1] (setting [5]) is greater than 66.7 µM. The CC50 at 3 days in data set [2] was greater than 200 µM.
`O=C(O)[C@H](NC(=O)[C@@H]1CC=CC[C@H]1C(=O)c1ccccc1)c1ccccc1` [Compound D26]: the 50% inhibitory concentration (IC50) in data set [1] (setting [3]) is greater than 200 µM.
